Results: patent US10077288B2, “Hydroxystatin derivatives for the treatment of arthrosis” (Merck Patent GmbH, priority 2012, dated 2018)

How the values were obtained:
[1] = molecular target: T1, cathepsin D isolated from the human liver (Homo sapiens, UniProt P07339); experiment: In-vitro fluorescence assay for identification of cathepsin D inhibitors; type: biochemical; details: human liver cathepsin D 1.4 nM, pH 5.5; read-out: CatD assay IC50-(M)
T1 construct: cathepsin D isolated from the human liver (Sigma-Aldrich); purchased Sigma-Aldrich; host or cells: human liver (tissue-derived, not recombinant)
Summary of the method: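 Continuous FRET assay: human liver cathepsin D (1.4 nM final) preincubated 10 min at room temperature with serially diluted compound in 100 mM sodium acetate, 1.25% DMSO, 0.25% Chaps, pH 5.5. Started with 5 μM MCA-GKPILFFRLK(Dnp)d-R-NH2; fluorescence increase (ex 340/em 450 nm) over 60 min at room temperature compared with no-compound control.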

recombinant human renin = molecular target: T2, recombinant human renin (Homo sapiens, UniProt P00797); experiment: In-vitro fluorescence assay for identification of renin-inhibitory activity; type: biochemical; details: recombinant human renin 10 nM, FRET substrate 5 μM, pH 7.2; read-out: Renin selectivity IC50
T2 construct: purchased Proteos, Kalamazoo, Mich
T2 sequence (P00797 67-406): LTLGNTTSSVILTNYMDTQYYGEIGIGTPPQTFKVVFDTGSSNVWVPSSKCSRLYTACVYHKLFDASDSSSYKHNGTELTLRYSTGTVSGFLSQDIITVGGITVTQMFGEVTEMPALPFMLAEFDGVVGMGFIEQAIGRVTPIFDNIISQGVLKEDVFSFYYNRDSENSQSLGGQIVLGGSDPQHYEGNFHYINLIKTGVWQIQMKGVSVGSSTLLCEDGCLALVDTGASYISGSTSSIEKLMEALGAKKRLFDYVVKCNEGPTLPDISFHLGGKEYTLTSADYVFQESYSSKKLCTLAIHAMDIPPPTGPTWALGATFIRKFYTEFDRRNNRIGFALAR
Procedure: EXAMPLE 8: IN-VITRO FLUORESCENCE ASSAY FOR IDENTIFICATION OF RENIN-INHIBITORY ACTIVITY
In order to identify modulators of renin activity, a continuous enzymatic test was carried out with a synthetic peptide which carries a fluorescent group Edans (=(5-(aminoethyl)aminonaphthalenesulfonate) which is quenched by energy transfer from a Dabcyl (4′-dimethylaminoazobenzene-4-carboxylate) group on the same molecule, in Greiner 384-well microtitre plates. Cleavage of the peptidic substrate by renin causes an increase in the fluorescence intensity. In order to determine the efficacy of substances, the time-dependent increase in the fluorescence intensity in the presence of the substance was compared with the time-dependent increase in fluorescence in the absence of substances. The reference substance used was renin inhibitor 2 (Z-Arg-Arg-Pro-Phe-His-Sta-Ile-His N-Boc-Lys methyl ester Z) (Sigma-Aldrich). The substrate used was renin FRET substrate I (DABCYL-g-Abu-Ile-His-Pro-Phe-His-Leu-Val-Ile-His-Thr-EDANS) (Anaspec, Fremont Calif.). The enzyme employed was recombinant human renin (Pro-teos, Kalamazoo, Mich.) in a final concentration of 10 nM. The test was carried out in 50 mM Mops buffer, 1.5% (v/v) of DMSO, 0.1% (w/v) of Igepal®, pH 7.2, 0.5% (w/v) of BSA. 2 μl of each substance solution with serially diluted substance concentration were added to in each case 4 μl of renin solution and incubated at room temperature for 15 min. The reaction was started by addition of 4 μl of substrate solution (final concentration 5 μM). After carrying out a starting-point fluorescence measurement (excitation wavelength 340 nm/emission wavelength 495 nm) using an Envision multilabel reader (Perkin Elmer), the reaction was incubated at 37° C. for 60 min. The amount of peptide fragment cleaved off during the reaction time was subsequently measured by determination of the increase in the fluorescence intensity at 495 nm (excitation wavelength 340 nm).
Result: all compounds measured have an IC50 of the renin selectivity of >30 μM (see Table 2 in Example 1).

T1 sequence (P07339 65-161 limits assumed): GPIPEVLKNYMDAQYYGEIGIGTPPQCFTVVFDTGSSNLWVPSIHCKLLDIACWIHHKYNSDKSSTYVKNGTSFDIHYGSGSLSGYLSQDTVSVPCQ
T1 sequence (P07339 169-412 limits assumed): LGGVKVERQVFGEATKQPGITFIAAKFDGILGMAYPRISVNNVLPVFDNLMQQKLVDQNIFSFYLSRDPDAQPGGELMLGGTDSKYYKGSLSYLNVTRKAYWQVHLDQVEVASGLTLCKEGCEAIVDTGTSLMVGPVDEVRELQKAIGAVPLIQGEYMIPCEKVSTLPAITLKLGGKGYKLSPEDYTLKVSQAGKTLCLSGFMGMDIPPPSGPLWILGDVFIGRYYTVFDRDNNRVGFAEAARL

| IC50 [1] [M] | IC50 (recombinant human renin) [nM] | SMILES |
| --- | --- | --- |
| 1.2e-08 | – | CC[C@H](C)[C@H](NC(=O)C[C@H](O)[C@H](Cc1ccccc1)NC(=O)[C@@H](NC(=O)Cc1cccc(OC)c1)C(C)C)C(=O)N[C@H](C(=O)O)C(C)C [Compound 20, (S)-2-[(2S,3S)-2-((3S,4S)-3-hydroxy-4-{(S)-2-[2-(3-methoxyphenyl)-acetylamino]-3-methylbutyrylamino}-5-phenylpentanoylamino)-3-methylpentanoylamino]-3-methylbutyric acid] |
| 3.41e-08 | 20000 | CC[C@H](C)[C@H](NC(=O)C[C@H](O)[C@H](Cc1ccccc1)NC(=O)[C@@H](NC(=O)CCCc1ccccc1)C(C)C)C(=O)N[C@H](C(=O)O)C(C)C [Compound 5, (S)-2-((2S,3S)-2-{(3S,4S)-3-hydroxy-4-[(S)-3-methyl-2-(4-phenyl-butyrylamino)butyrylamino]-5-phenylpentanoylamino}-3-methylpentanoylamino)-3-methylbutyric acid] |
| 3e-08 | – | CC[C@H](C)[C@H](NC(=O)C[C@H](O)[C@H](Cc1ccccc1)NC(=O)[C@@H](NC(=O)CCc1ccccc1)C(C)C)C(=O)N[C@H](C(=O)O)C(C)C [Compound 4, (S)-2-((2S,3S)-2-{(3S,4S)-3-hydroxy-4-[(S)-3-methyl-2-(3-phenyl-propionylamino)butyrylamino]-5-phenylpentanoylamino}-3-methylpentanoylamino)-3-methylbutyric acid] |
